According to PMC10191619, “Bilirubin gates the TRPM2 channel as a direct agonist to exacerbate ischemic brain damage” (Neuron, 2023):

Legend:
Format in all cases: cell-based
[1] = biological target: T1, hTRPM2 K928A/D1069A double mutant (Homo sapiens, UniProt O94759, D1069A/K928A); assay: Whole-cell patch-clamp, bilirubin-binding cavity double mutant; conditions: intracellular ADPR 500 μM
T1 construct: expressed in transfected cells; host or cells: HEK293T cells, transient transfection, GFP cDNA co-transfected as a separate marker
T1 sequence (O94759 whole entry K928A/D1069A): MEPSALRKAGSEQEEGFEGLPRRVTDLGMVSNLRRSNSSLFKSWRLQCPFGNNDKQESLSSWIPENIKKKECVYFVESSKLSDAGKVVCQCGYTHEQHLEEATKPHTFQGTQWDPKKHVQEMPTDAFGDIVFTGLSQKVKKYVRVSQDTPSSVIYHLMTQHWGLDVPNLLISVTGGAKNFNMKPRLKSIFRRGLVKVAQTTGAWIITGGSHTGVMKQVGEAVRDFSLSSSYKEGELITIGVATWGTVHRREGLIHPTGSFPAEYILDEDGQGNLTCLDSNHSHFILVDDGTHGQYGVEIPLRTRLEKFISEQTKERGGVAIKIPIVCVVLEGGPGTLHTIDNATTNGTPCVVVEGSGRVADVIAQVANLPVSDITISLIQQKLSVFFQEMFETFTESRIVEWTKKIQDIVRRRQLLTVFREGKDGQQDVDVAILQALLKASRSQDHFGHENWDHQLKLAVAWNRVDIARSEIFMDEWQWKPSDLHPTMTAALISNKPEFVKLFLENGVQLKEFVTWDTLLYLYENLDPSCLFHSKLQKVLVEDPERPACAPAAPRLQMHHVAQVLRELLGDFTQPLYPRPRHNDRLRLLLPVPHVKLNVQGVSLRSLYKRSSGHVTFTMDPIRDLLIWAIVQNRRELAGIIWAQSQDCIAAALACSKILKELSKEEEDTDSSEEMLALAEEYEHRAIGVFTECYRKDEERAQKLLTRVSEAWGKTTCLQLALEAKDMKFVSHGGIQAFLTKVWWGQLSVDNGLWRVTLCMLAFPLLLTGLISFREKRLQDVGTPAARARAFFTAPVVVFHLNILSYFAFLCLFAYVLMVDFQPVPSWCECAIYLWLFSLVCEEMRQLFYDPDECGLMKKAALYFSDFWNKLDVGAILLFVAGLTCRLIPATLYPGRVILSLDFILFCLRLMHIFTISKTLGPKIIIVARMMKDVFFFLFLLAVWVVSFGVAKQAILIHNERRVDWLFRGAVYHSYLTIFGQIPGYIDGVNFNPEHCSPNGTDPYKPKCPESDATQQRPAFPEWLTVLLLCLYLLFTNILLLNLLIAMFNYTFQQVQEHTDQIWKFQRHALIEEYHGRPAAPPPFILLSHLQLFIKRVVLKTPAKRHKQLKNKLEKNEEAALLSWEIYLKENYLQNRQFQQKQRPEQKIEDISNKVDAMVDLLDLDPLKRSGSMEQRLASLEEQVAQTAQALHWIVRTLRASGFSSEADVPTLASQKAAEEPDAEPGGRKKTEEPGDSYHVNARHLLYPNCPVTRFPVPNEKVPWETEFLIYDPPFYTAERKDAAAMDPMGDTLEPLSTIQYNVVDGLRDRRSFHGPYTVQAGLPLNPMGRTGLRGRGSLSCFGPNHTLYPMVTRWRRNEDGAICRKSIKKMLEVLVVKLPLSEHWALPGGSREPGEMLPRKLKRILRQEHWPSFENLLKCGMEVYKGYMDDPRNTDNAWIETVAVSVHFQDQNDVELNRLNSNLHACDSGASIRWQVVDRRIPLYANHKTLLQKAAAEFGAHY
Protocol: (§1) Human embryonic kidney 293 (HEK293) cells with tetracycline-inducible expression of human TRPM2 channel (hTRPM2) were cultured in a mixed medium containing DMEM/ F-12 (Gibco, USA) and 10% fetal bovine serum (Gibco, USA) as well as blasticidin (50 μg/ml, Invivogen, USA) and zeocin (0.4 mg/ml, Invivogen, USA). The expression of hTRPM2 was induced by substituting blasticin and zeocin for tetracycline (1 μg/ml, Sigma, USA) 24-48 hours before use. TRPM2 channel mutants were transiently expressed in HEK293T cells by transfection with using Lipofectamine 3000. Briefly, HEK293T cells were transiently transfected with cDNAs encoding the mutant hTRPM2 channel. The cDNA for GFP was co-transfected as a marker for identification of the transfected cells for electrophysiological experiments 16-24 hours after transfection. […]
(§2) Coronal cortical slices were transferred into the recording chamber and continuously perfused at room temperature with ACSF oxygenated with 95% O2 and 5% CO2. […] For whole-cell or single channel recordings from transfected HEK-293T cells, the coverslips were placed in a culture dish (35 × 35 mm, Sorfa) containing HEPES based extracellular solution (ECS) and recorded by patch-clamp technique. […] Each coverslip was recorded only once with different drug exposures. […]

TRPM2-ΔN/ΔC = biological target: T2, TRPM2-ΔN/ΔC (Homo sapiens, UniProt O94759); assay: Whole-cell patch-clamp, truncation mutant; conditions: ADPR 500 μM
T2 construct: expressed in transfected cells; host or cells: HEK293T cells, transient transfection, GFP cDNA co-transfected as a separate marker
T2 sequence (O94759 1-1449 isoform O94759-2): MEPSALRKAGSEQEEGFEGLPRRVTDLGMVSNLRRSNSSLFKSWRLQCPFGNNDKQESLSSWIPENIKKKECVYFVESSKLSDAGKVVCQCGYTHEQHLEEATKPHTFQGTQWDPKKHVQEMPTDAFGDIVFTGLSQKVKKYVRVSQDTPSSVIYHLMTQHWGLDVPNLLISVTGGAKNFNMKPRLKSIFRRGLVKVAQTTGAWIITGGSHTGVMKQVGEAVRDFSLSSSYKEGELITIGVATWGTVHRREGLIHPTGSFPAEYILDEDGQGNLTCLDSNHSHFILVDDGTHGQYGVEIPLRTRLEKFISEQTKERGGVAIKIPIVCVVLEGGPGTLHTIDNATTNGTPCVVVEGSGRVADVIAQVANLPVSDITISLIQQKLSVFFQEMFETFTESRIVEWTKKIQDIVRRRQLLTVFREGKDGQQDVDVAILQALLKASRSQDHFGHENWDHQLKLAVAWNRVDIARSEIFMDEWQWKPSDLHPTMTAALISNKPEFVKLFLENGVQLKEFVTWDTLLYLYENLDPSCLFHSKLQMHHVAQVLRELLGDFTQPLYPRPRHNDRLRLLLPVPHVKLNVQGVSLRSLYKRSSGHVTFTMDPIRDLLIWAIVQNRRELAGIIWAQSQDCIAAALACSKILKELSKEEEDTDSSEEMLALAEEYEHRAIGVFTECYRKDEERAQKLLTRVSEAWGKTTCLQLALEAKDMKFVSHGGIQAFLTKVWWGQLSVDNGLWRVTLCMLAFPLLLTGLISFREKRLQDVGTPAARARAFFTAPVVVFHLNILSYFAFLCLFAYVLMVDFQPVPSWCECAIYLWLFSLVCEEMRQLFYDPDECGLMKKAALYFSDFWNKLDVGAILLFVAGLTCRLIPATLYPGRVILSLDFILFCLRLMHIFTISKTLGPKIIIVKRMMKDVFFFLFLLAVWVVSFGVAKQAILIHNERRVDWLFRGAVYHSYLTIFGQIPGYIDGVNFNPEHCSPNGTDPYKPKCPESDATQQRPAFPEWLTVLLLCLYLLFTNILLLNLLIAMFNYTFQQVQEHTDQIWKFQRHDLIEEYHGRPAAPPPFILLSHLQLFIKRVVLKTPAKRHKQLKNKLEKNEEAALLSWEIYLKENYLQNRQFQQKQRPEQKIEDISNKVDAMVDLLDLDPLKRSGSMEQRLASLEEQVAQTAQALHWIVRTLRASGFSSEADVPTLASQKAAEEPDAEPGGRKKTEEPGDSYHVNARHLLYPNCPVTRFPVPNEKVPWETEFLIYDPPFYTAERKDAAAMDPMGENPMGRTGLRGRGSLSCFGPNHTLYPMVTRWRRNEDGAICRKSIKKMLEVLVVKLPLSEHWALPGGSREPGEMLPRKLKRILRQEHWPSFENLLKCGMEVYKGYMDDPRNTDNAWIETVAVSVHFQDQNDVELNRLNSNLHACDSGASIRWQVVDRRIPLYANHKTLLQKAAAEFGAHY
Protocol: as §1, §2

hTRPM2 R302A/R358A = biological target: T3, hTRPM2 R302A/R358A (Homo sapiens, UniProt O94759, R302A/R358A); assay: Whole-cell patch-clamp, N-terminal ADPR-binding site mutant; conditions: ADPR
T3 construct: expressed in transfected cells; host or cells: HEK293T cells, transient transfection (Lipofectamine 3000), GFP cDNA co-transfected as a separate marker
T3 sequence (O94759 whole entry R302A/R358A): as the sequence (O94759 whole entry K928A/D1069A) above, with R302A, R358A, A928K, A1069D counted along it
Protocol: as §1, §2

Nc1ncnc2c1ncn2C1O[C@H](COP(=O)([O-])OP(=O)(O)OC[C@H]2OC(O)[C@H](O)[C@@H]2O)[C@@H](O)[C@H]1O.O.O.[Na+] (stereo partly drawn) [ADPR, Adenosine 5ʹ-diphosphoribose sodium salt]
activation of mutant TRPM2 currents [1]: perfectly retained their agonist capacity | activation of mutant TRPM2 currents (TRPM2-ΔN/ΔC): eliminated the activation | activation of mutant TRPM2 currents (hTRPM2 R302A/R358A): failed to evoke currents
